What was measured:
[1] = target: T1, GNAQ (T96S) (Homo sapiens, UniProt P50148, T96S); experiment: SRE luciferase reporter gene-HEK293 cell line, GNAQ (T96S); format: cell-based; details: Cell type T96S, 20% FBS induction, read-out: GNAQ inhibitory rate; for inhibition at 0.9 µM: analytical concentration 900 nM; for inhibition at 2.7 µM: analytical concentration 2,700 nM; for inhibition at 8.1 µM: analytical concentration 8,100 nM
T1 construct: BPS Bioscience (parental reporter cell line) 60406
T1 sequence (P50148 1-359 T96S): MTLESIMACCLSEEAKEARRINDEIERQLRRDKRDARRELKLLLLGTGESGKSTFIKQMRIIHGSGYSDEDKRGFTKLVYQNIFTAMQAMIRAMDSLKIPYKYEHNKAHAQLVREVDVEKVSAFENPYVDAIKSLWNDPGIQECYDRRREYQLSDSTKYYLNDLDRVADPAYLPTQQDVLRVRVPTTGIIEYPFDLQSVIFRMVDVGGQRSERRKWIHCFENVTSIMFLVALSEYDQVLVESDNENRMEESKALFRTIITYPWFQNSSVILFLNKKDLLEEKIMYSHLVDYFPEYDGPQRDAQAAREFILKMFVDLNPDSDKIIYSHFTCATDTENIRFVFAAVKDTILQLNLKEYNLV
Procedure: 7.5×10^4 SRE-293-GNAQ (WT) or SRE-293-GNAQ (T96S) cell lines were seeded in a 24-well plate and cultured in a carbon dioxide incubator at 37° C. SRE-293-GNAQ (WT) or SRE-293-GNAQ (T96S) cell lines was derived from additionally transfecting SRE Reporter—HEK293 Recombinant Cell Line (ERK Pathway) (Catalog number: 60406; BPS Bioscience) cells with an expression vector separately expressing GNAQ (WT) or GNAQ (T96S), and screening a stable expression cell line by the antibiotic, geneticin (type number 10131035; Thermo Fisher Scientific). GNAQ (WT) or GNAQ (T96) expression vector was derived from gene synthesis and point mutation modification of GenScript company's customized services.
After 48 hours of culture, the culture medium in the 24-well plate was replaced with minimal essential medium (MEM) containing only 0.1% fetal bovine serum (FBS) and the cells were cultured overnight.
After overnight culture, the compound to be tested was added to the cells and reacted for 2 hours, and the medium at this point was still MEM medium containing only 0.1% fetal bovine serum. After reacting with the compound to be tested for 2 hours, fetal bovine serum at a final concentration of 20% was added to the cells and reacted for at least 4 hours. After the reaction, the supernatant was removed. Next, 100 μL of cell lysis reagent CelLytic M Cell Lysis Reagent (Catalog number: C2978; Sigma) was added to the cells and aspirated repeatedly several times to form a cell lysate solution with the cells. The cell lysate solution was collected in a microcentrifuge tube and centrifuged at a high speed of 14,000 rpm for 5 minutes. After that, 30 μL of supernatant was taken out and placed in a 96-well white plate for luminescence analysis, and 30 μL of firefly luminescence analysis reagent (Catalog No. E1501; Promega) diluted 3-fold was added and mixed well, and then luminescence detection was performed with a plate enzyme immunoassay analyzer (ELISA reader) to evaluate the effect of the compound to be tested on MAPK signaling induced by GNAQ through the expression of the firefly luciferase reporter gene.
In order to confirm the effect of the compounds on MAPK signaling induced by GNAQ, the screened SRE-HEK293 cells capable of expressing exogenous GNAQ (WT) and GNAQ (T96S) genes were subjected to overnight serum starvation, and 2 hours before induction with 20% fetal bovine serum, the compound to be tested (one of Compound 1 to Compound 15 prepared above) was added to the cells, and after serum induction, the expression of the firefly luciferase reporter gene was measured. Through the above steps, the inhibition of the compound to be tested on GNAQ expression could be evaluated through the expression of the reporter gene in cells.

[2] = tested on: MDA-MB-231-OE-GNAQ (T96S); experiment: Inhibition of growth of triple-negative breast cancer cells MDA-MB-231-OE-GNAQ (T96S) (PrestoBlue); format: cell-based; details: Homo sapiens, 168 h, 7 days culture, 2% fetal bovine serum, read-out: Inhibitory activity (evaluated by IC50)
Procedure: Triple-negative breast cancer cells, MDA-MB-231 and MDA-MB-231-OE-GNAQ (T96S) (additionally expressing GNAQ (T96S)) were cultured in L-15 medium and in a temperature-controlled incubator without need of additional offer of 5% carbon dioxide.
1×10^3 of the cells mentioned above were seeded in a 96-well plate, placed in a temperature-controlled incubator and cultured overnight (at least 16 hours).
After overnight incubation, the supernatant was removed. Next, after 200 μL of cell culture medium (containing 2% fetal bovine serum) containing different concentrations of test compound was added to each well of the 96-well plate, the 96-well plate was placed in a 37° C. incubator for 7 days further culture. After that, an additional 30 μL of diluted PrestoBlue™ Cell Viability Reagent (Catalog Number: A13261; Thermo Fisher Scientific) (4 μL stock solution and 26 μL culture medium) was added to each well of the 96-well plate and the reaction was continued for further about 1 hour.
Finally, the fluorescence value at the wavelength of 535/615 nm of each well was read with a plate enzyme immunoassay analyzer, and the inhibitory rate of the compound on triple-negative breast cancer cells were calculated using the following formula.
Moreover, the half maximal inhibitory concentration (IC50) of the compound on the growth of triple-negative breast cancer cells was calculated with the inhibitory rate of compound on triple-negative breast cancer cells at each concentration through the online half maximal inhibitory concentration (IC50) calculation software, IC50 Calculator, provided by AAT Bioquest company on its website (https://www.aatbio.com/tools/ic50-calculator).
Finally, the inhibition of the compound on the growth of triple-negative breast cancer cells was evaluated by the calculated half maximal inhibitory concentration (IC50) of the compound on the growth of triple-negative breast cancer cells.
The inhibition of the compound on the growth of triple-negative breast cancer cells was evaluated by the half maximal inhibitory concentration (IC50) of the compound (one of Compound 1 to Compound 15 prepared above) on the growth of triple-negative breast cancer cells through the human triple-negative breast cancer cell lines MDA-MB-231 and MDA-MB-231-OE-GNAQ (T96S) (additionally expressing GNAQ (T96S)).

Compound | inhibition at 0.9 µM [1] [%] | inhibition at 2.7 µM [1] [%] | inhibition at 8.1 µM [1] [%] | IC50 [2] [µM]
O=C(Nc1ccc(-c2ccnc(-c3ccncc3)n2)cc1)Nc1ccc(Cl)c(C(F)(F)F)c1 [Compound 6] | 10 to 39 | 10 to 39 | 40 to 70 | 2.5 to 5
N#Cc1cccc(-c2cccc(-c3ccc(NC(=S)Nc4cc(Cl)nc(Cl)c4)cc3)n2)c1 [Compound 11] | 10 to 39 | 40 to 70 | > 70 | 0.31 to 2.5
O=C(Nc1cccc(-c2ccnc(-c3cccc(C(F)(F)F)c3)n2)c1)Nc1cc(Cl)nc(Cl)c1 [Compound 2] | < 10 | 10 to 39 | > 70 | 0.31 to 2.5
N#Cc1cccc(-c2nccc(-c3cccc(NC(=O)Nc4cc(Cl)nc(Cl)c4)c3)n2)c1 [Compound 3] | < 10 | 40 to 70 | > 70 | 0.31 to 2.5
O=C(Nc1ccc(-c2nc(-c3ccccc3)ncc2Cl)cc1)Nc1cc(Cl)nc(Cl)c1 [Compound 15] | < 10 | 10 to 39 | 40 to 70 | 0.31 to 2.5
O=C(Nc1ccc(-c2cccc(-c3ccncc3)n2)cc1)Nc1ccc(Cl)c(C(F)(F)F)c1 [Compound 12] | 10 to 39 | 40 to 70 | 40 to 70 | 0.31 to 2.5
O=C(Nc1cccc(-c2cc(-c3cccc(C(F)(F)F)c3)ncn2)c1)Nc1cc(Cl)nc(Cl)c1 [Compound 14] | 10 to 39 | 10 to 39 | > 70 | 0.31 to 2.5
O=C(Nc1cccc(-c2ccnc(-c3cccc(C(F)(F)F)c3)n2)c1)c1cc(Cl)nc(Cl)c1 [Compound 5] | < 10 | < 10 | < 10 | 0.31 to 2.5
O=C(Nc1cccc(-c2ccnc(-c3ccc(F)c(F)c3)n2)c1)Nc1cc(Cl)nc(Cl)c1 [Compound 4] | < 10 | 10 to 39 | 40 to 70 | 0.31 to 2.5
O=C(Nc1cccc(-c2ccnc(-c3ccnc(Cl)c3)n2)c1)Nc1cc(Cl)nc(Cl)c1 [Compound 1] | < 10 | 10 to 39 | > 70 | 0.31 to 2.5
O=C(Nc1cccc(-c2cccc(-c3ccncc3)n2)c1)Nc1cc(Cl)nc(Cl)c1 [Compound 13] | 10 to 39 | 40 to 70 | > 70 | 0.31 to 2.5
O=C(Nc1ccc(-c2ccnc(-c3cccc(C(F)(F)F)c3)n2)cc1)Nc1cc(Cl)nc(Cl)c1 [Compound 7] | < 10 | 10 to 39 | 10 to 39 | 0.31 to 2.5
O=C(Nc1ccc(-c2ccnc(-c3cccc(C(F)(F)F)c3)n2)cc1)Nc1ccc(Cl)c(C(F)(F)F)c1 [Compound 8] | < 10 | < 10 | 10 to 39 | 0.31 to 2.5
FC(F)(F)c1cccc(-c2cccc(-c3ccc(NC(=S)Nc4cc(Cl)nc(Cl)c4)cc3)n2)c1 [Compound 10] | < 10 | 40 to 70 | > 70 | 0.31 to 2.5
O=C(Nc1ccc(-c2cccc(-c3cccc(C(F)(F)F)c3)n2)cc1)Nc1cc(Cl)nc(Cl)c1 [Compound 9] | < 10 | 10 to 39 | 40 to 70 | 0.31 to 2.5

Reference: patent publication US20250197373A1, “SMALL MOLECULE COMPOUND OR SALT THEREOF OR SOLVATE OF THEM, GUANINE NUCLEOTIDE-BINDING PROTEIN G(Q) SUBUNIT ALPHA (GNAQ) INHIBITOR CONTAINING THE SAME AND METHOD FOR TREATING AND/OR PREVENTING CANCER” (INDUSTRIAL TECHNOLOGY RESEARCH INSTITUTE, priority 2023, published 2025)
